Legend:
FAAH = target: T1, FAAH (Mus musculus, UniProt O08914); assay: In vitro competitive activity-based protein profiling (mouse), FAAH gel band; assay type: biochemical; conditions: for inhibition at 1 µM: read-out: FAAH % inh. 1 μM; for IC50: mouse
T1 construct: Proteomes (mouse brain membrane fraction or cell lysates); from tissue; host or cells: mouse brain membrane fraction (or cell lysates)
T1 sequence (O08914 1-579): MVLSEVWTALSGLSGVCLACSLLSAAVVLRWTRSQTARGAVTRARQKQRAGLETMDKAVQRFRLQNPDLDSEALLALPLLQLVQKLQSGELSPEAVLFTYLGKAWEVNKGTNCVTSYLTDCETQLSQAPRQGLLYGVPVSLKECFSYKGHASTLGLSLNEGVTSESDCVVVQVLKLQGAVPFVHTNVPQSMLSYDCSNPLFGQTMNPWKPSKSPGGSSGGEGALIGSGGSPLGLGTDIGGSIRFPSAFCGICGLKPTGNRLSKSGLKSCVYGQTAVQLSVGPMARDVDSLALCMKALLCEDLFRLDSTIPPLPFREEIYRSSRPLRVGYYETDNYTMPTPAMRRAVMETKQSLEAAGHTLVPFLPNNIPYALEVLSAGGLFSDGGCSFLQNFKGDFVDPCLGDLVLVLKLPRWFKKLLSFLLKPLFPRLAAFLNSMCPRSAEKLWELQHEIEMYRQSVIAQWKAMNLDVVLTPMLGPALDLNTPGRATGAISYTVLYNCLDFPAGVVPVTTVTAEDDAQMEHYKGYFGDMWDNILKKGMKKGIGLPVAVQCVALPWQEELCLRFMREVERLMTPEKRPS
Procedure, shortened: (§1)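 Gel-based competitive ABPP: proteome 1.0 mg/mL, inhibitor 30 min 37 °C, then FP-Rh or HT-01 probe (stock 50 μM) 30 min 37 °C; SDS quench, SDS-PAGE, in-gel fluorescence of the enzyme band quantified.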

MAGL = target: T2, MAGL (Mus musculus, UniProt O35678); assay: In vitro competitive activity-based protein profiling (mouse), MAGL gel band; assay type: biochemical; conditions: for inhibition at 1 µM: read-out: MAGL % inh. 1 μM; for IC50: mouse
T2 construct: Proteomes (mouse brain membrane fraction or cell lysates); from tissue; host or cells: mouse brain membrane fraction (or cell lysates)
T2 sequence (O35678 1-303): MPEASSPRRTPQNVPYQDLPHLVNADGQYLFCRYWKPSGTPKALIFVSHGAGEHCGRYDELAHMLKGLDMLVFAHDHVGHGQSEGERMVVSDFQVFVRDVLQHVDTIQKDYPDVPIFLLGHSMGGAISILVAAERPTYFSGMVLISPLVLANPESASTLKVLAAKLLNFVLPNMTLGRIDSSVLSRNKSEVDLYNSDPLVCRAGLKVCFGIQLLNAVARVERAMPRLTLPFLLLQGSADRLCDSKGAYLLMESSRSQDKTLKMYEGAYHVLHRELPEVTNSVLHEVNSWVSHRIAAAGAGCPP
Procedure, shortened: as §1

| Compound | inhibition at 1 µM (FAAH) | inhibition at 1 µM (MAGL) | IC50 (FAAH) | IC50 (MAGL) |
| --- | --- | --- | --- | --- |
| CN1CCC(Oc2cc(CN3CCN(C(=O)n4ccc(NS(C)(=O)=O)n4)CC3)ccc2Cl)CC1 [Example 220, N-(1-(4-(4-chloro-3-((1-methylpiperidin-4-yl)oxy)benzyl)piperazine-1-carbonyl)-1H-pyrazol-3-yl) methanesulfonamide] | 0 to 25% | 25 to 50% | – | – |
| CC(=O)Nc1ccn(C(=O)N2CCN(Cc3ccc(C(F)(F)F)cc3OC3CCS(=O)(=O)CC3)CC2)n1 [Example 77, N-(1-(4-(2-((1,1-dioxidotetrahydro-2H-thiopyran-4-yl)oxy)-4-(trifluoromethyl)benzyl)piperazine-1-carbonyl)-1H-pyrazol-3-yl)acetamide] | 0 to 25% | ≥ 75% | – | – |
| CC(=O)Nc1ccn(C(=O)N2CCC3(CCCN3Cc3ccc(N4CCCC4)c(Cl)c3)CC2)n1 [Example 100, N-(1-(1-(3-chloro-4-(pyrrolidin-1-yl)benzyl)-1,8-diazaspiro[4.5]decane-8-carbonyl)-1H-pyrazol-3-yl)acetamide] | 0 to 25% | ≥ 75% | 1 to 10 µM | ≤ 0.1 µM |
| CC(=O)N(C)c1ccn(C(=O)N2CCC3(CCCN3Cc3ccc(C(F)(F)F)cc3N3CCCC3)CC2)n1 [Example 68, N-methyl-N-(1-(1-(2-(pyrrolidin-1-yl)-4-(trifluoromethyl)benzyl)-1,8-diazaspiro[4.5]decane-8-carbonyl)-1H-pyrazol-3-yl)acetamide] | 0 to 25% | 50 to 75% | – | – |
| CS(=O)(=O)Nc1ccn(C(=O)N2CCN(C(c3ccc(Cl)cc3)c3ccc(Cl)cc3)CC2)n1 [Example 182, N-(1-(4-(bis(4-chlorophenyl)methyl)piperazine-1-carbonyl)-1H-pyrazol-3-yl) methanesulfonamide] | 0 to 25% | 0 to 25% | – | – |
| Cc1c(CN2CCCC23CCN(C(=O)n2ccc(NS(C)(=O)=O)n2)CC3)cccc1N1CCOCC1 [Example 226, N-(1-(1-(2-methyl-3-morpholinobenzyl)-1,8-diazaspiro[4.5]decane-8-carbonyl)-1H-pyrazol-3-yl) methanesulfonamide] | 0 to 25% | 0 to 25% | – | – |
| CC(=O)Nc1ccn(C(=O)N2CCC3(CCCN3Cc3ccc(Cl)c(C(F)(F)F)c3)CC2)n1 [Example 25, N-(1-(1-(4-chloro-3-(trifluoromethyl)benzyl)-1,8-diazaspiro[4.5]decane-8-carbonyl)-1H-pyrazol-3-yl)acetamide] | 25 to 50% | ≥ 75% | – | – |
| CC(=O)Nc1ccn(C(=O)N2CCC3(CCCN3Cc3ccc(Cl)cc3N3CCN(C4CC4)CC3)CC2)n1 [Example 13, N-(1-(1-(4-chloro-2-(4-cyclopropylpiperazin-1-yl)benzyl)-1,8-diazaspiro[4.5]decane-8-carbonyl)-1H-pyrazol-3-yl)acetamide] | 0 to 25% | ≥ 75% | 1 to 10 µM | 0.1 to 1 µM |
| CC(=O)Nc1ccn(C(=O)N2CCC3(CCCN3Cc3ccc(C(F)(F)F)cc3N3CCCC3)CC2)n1 [Example 8, N-(1-(1-(2-(pyrrolidin-1-yl)-4-(trifluoromethyl)benzyl)-1,8-diazaspiro[4.5]decane-8-carbonyl)-1H-pyrazol-3-yl)acetamide] | 0 to 25% | ≥ 75% | 1 to 10 µM | ≤ 0.1 µM |
| CS(=O)(=O)Nc1ccn(C(=O)N2CCN(Cc3ccc(Cl)c(-c4nnco4)c3)CC2)n1 [Example 260, N-(1-(4-(4-chloro-3-(1,3,4-oxadiazol-2-yl)benzyl)piperazine-1-carbonyl)-1H-pyrazol-3-yl) methanesulfonamide] | 0 to 25% | ≥ 75% | – | – |
| CC(C)S(=O)(=O)Nc1ccn(C(=O)N2CCN(Cc3ccc(C(F)(F)F)cc3N3CCCC3)CC2)n1 [Example 134, N-(1-(4-(2-(pyrrolidin-1-yl)-4-(trifluoromethyl)benzyl)piperazine-1-carbonyl)-1H-pyrazol-3-yl)propane-2-sulfonamide] | 0 to 25% | 25 to 50% | 1 to 10 µM | 1 to 10 µM |
| CS(=O)(=O)Nc1ccn(C(=O)N2CCN(Cc3cc(Cl)cc(C(F)(F)F)c3)CC2)n1 [Example 176, N-(1-(4-(3-chloro-5-(trifluoromethyl)benzyl)piperazine-1-carbonyl)-1H-pyrazol-3-yl) methanesulfonamide] | 0 to 25% | ≥ 75% | – | – |
| CC(=O)Nc1ccn(C(=O)N2CCC3(CCCN3Cc3ccc(C(=O)O)c(C(F)(F)F)c3)CC2)n1 [Example 110, 4-((8-(3-acetamido-1H-pyrazole-1-carbonyl)-1,8-diazaspiro[4.5]decan-1-yl)methyl)-2-(trifluoromethyl)benzoic Acid] | 0 to 25% | ≥ 75% | – | – |
| CC(=O)NC1CCN(c2cc(CN3CCN(C(=O)n4ccc(NS(C)(=O)=O)n4)CC3)ccc2C(F)(F)F)CC1 [Example 279, N-(1-(5-((4-(3-(methylsulfonamido)-1H-pyrazole-1-carbonyl)piperazin-1-yl)methyl)-2-(trifluoromethyl)phenyl)piperidin-4-yl)acetamide] | 0 to 25% | ≥ 75% | – | – |
| CC(=O)Nc1ccn(C(=O)N2CCC3(CCCN3Cc3ccc(Cl)cc3N3CCC(F)(F)CC3)CC2)n1 [Example 11, N-(1-(1-(4-chloro-2-(4,4-difluoropiperidin-1-yl)benzyl)-1,8-diazaspiro[4.5]decane-8-carbonyl)-1H-pyrazol-3-yl)acetamide] | 0 to 25% | ≥ 75% | 1 to 10 µM | 0.1 to 1 µM |
| Cc1c(CN2CCCC23CCN(C(=O)n2ccc(NS(C)(=O)=O)n2)CC3)cccc1N1CCCC1 [Example 224, N-(1-(1-(2-methyl-3-(pyrrolidin-1-yl)benzyl)-1,8-diazaspiro[4.5]decane-8-carbonyl)-1H-pyrazol-3-yl) methanesulfonamide] | 0 to 25% | ≥ 75% | 1 to 10 µM | 1 to 10 µM |
| CCN1CCN(c2cc(Cl)ccc2CN2CCN(C(=O)n3ccc(NC(C)=O)n3)CC2)CC1 [Example 59, N-(1-(4-(4-chloro-2-(4-ethylpiperazin-1-yl)benzyl)piperazine-1-carbonyl)-1H-pyrazol-3-yl)acetamide] | 0 to 25% | ≥ 75% | 1 to 10 µM | 0.1 to 1 µM |
| CC(=O)Nc1ccn(C(=O)N2CCC3(CCCN3Cc3cc(Cl)cc(N4CC5CN(C(C)=O)CC5C4)c3)CC2)n1 (centres unmarked) [Example 65, N-(1-(1-(3-(5-acetylhexahydropyrrolo[3,4-c]pyrrol-2(1H)-yl)-5-chlorobenzyl)-1,8-diazaspiro[4.5]decane-8-carbonyl)-1H-pyrazol-3-yl)acetamide] | 25 to 50% | ≥ 75% | – | – |
| CS(=O)(=O)Nc1ccn(C(=O)N2CCC3(CCCN3Cc3ccc(N4CCOCC4)cc3C(F)(F)F)CC2)n1 [Example 164, N-(1-(1-(4-morpholino-2-(trifluoromethyl)benzyl)-1,8-diazaspiro[4.5]decane-8-carbonyl)-1H-pyrazol-3-yl)methanesulfonamide] | 0 to 25% | 0 to 25% | – | – |
| CC(=O)Nc1ccn(C(=O)N2CCN(Cc3ccc(C(F)(F)F)cc3N3CCC(O)CC3)CC2)n1 [Example 276, N-(1-(4-(2-(4-hydroxypiperidin-1-yl)-4-(trifluoromethyl)benzyl)piperazine-1-carbonyl)-1H-pyrazol-3-yl)acetamide] | 0 to 25% | ≥ 75% | – | – |
| CS(=O)(=O)Nc1ccn(C(=O)N2CCN(Cc3cccc(C(F)(F)F)c3N3CCC(F)CC3)CC2)n1 [Example 273, N-(1-(4-(2-(4-fluoropiperidin-1-yl)-3-(trifluoromethyl)benzyl)piperazine-1-carbonyl)-1H-pyrazol-3-yl) methanesulfonamide] | 0 to 25% | ≥ 75% | – | – |
| CS(=O)(=O)Nc1ccn(C(=O)N2CCC3(CCCN3Cc3ccc(C(F)(F)F)cc3N3CCOCC3)CC2)n1 [Example 126, N-(1-(1-(2-morpholino-4-(trifluoromethyl)benzyl)-1,8-diazaspiro[4.5]decane-8-carbonyl)-1H-pyrazol-3-yl)methanesulfonamide] | 0 to 25% | ≥ 75% | – | – |
| CC(C)C(=O)Nc1ccn(C(=O)N2CCN(Cc3ccc(C(F)(F)F)cc3N3CCCC3)CC2)n1 [Example 263, N-(1-(4-(2-(pyrrolidin-1-yl)-4-(trifluoromethyl)benzyl)piperazine-1-carbonyl)-1H-pyrazol-3-yl)isobutyramide] | 0 to 25% | ≥ 75% | 1 to 10 µM | 0.1 to 1 µM |

Reference: US10519134B2, “Pyrazole compounds and methods of making and using same” (Lundbeck La Jolla Research Center, Inc., priority 2015, dated 2019)
